From patent publication US20080038335A1, “METHOD, FORMULATION, AND USE THEREOF FOR IMPROVED ORAL ABSORPTION OF PHARMACEUTICALS OR NUTRIENTS” (SHANGHAI TIANBO BIOTECHNOLOGY CO., LTD., priority 2005, published 2008)

Columns and labels:
[1] = oral, Dong et al. 2003; cited from earlier work
[2] = Solubility in 90% ethanol (Chinese Pharmacopeia method); type: physicochemical; conditions: 25° C.±2° C., observed at 30 minutes
Procedure: The solution is observed at 30 minutes, and it is defined as complete dissolution when no solute particles or droplets are noticed.
• 1. Dissolve ginsenoside Rg3 in ethanol. • 100 mg test ginsenoside Rg3 was added to 100 ml of 90% ethanol at 25° C.±2° C., and forcefully shaken for 30 seconds every 5 minutes. […] Preparation of Rg3 solution in ethanol. • The ginsenoside Rg3-ethanol solution is prepared according to Rg3's solubility, and this solution will be used to determine the percentage of polyoxyethylene hydrogenated castor oil in formulation. • 3. Establishment of artificial gastric and intestinal environments. • The artificial gastric and intestinal fluids are prepared in accordance to experimental example 2. • 4. Determination of the proportion of protectant polyoxyethylene hydrogenated castor oil (Cremophor RH40) in ginsenoside Rg3-ethanol solution. • Polyoxyethylene hydrogenated castor oil (Cremophor RH40) at different proportions, from 5%-90%, is added to 100 ml ginsenoside Rg3-ethanol solution, and then the mixture is subjected to artificial gastric or intestinal fluids for stability test. […] The highest proportion as determined, i.e., 50% or 175 mg is adopted for drug preparation. • 5. […]
• 1. […] The highest proportion as determined, i.e., 40% or 150 mg is adopted for drug preparation. • 5. […]

Compound | absorption rate from the GI tract [1] [%] | Amount completely dissolved in 100 ml 90% ethanol [2] [mg]
CC(C)=CCC[C@](C)(O[C@@H]1O[C@H](CO[C@@H]2O[C@H](CO)[C@@H](O)[C@H](O)[C@H]2O)[C@@H](O)[C@H](O)[C@H]1O)[C@H]1CC[C@]2(C)[C@@H]1[C@H](O)C[C@@H]1[C@@]3(C)CC[C@H](O[C@@H]4O[C@H](CO)[C@@H](O)[C@H](O)[C@H]4O[C@@H]4O[C@H](CO)[C@@H](O)[C@H](O)[C@H]4O)C(C)(C)[C@@H]3CC[C@]12C [Rb1] | 1 | 
CC(C)=CCC[C@](C)(O[C@@H]1O[C@H](CO)[C@@H](O)[C@H](O)[C@H]1O)[C@H]1CC[C@]2(C)[C@@H]1[C@H](O)C[C@@H]1[C@@]3(C)CC[C@H](O)C(C)(C)[C@@H]3[C@@H](O[C@@H]3O[C@H](CO)[C@@H](O)[C@H](O)[C@H]3O)C[C@]12C [Rg1, ginsenoside Rg1] | 1.9 | 
CC(C)=CCC[C@](C)(O)[C@H]1CC[C@]2(C)[C@@H]1[C@H](O)C[C@@H]1[C@@]3(C)CC[C@H](O[C@@H]4O[C@H](CO)[C@@H](O)[C@H](O)[C@H]4O[C@@H]4O[C@H](CO)[C@@H](O)[C@H](O)[C@H]4O)C(C)(C)[C@@H]3CC[C@]12C [Rg3, ginsenoside Rg3] |  | 100
CC(C)=CCC[C@](C)(O)[C@H]1CC[C@]2(C)[C@@H]1[C@H](O)C[C@@H]1[C@@]3(C)CC[C@H](O[C@@H]4O[C@H](CO)[C@@H](O)[C@H](O)[C@H]4O)C(C)(C)[C@@H]3CC[C@]12C [Rh2, ginsenoside Rh2] | 3.4 | 
CC(C)=CCC[C@@](C)(O)[C@H]1CC[C@]2(C)[C@@H]1[C@H](O)C[C@@H]1[C@@]3(C)CC[C@H](O)C(C)(C)[C@@H]3CC[C@]12C [aPPD, protopanoxadiol sapogenin aPPD] |  | 40
